The numbers were not newly measured in US20240287072A1, “SOLID STATE FORMS OF LUMATEPERONE SALTS AND PROCESSES FOR PREPARATION OF LUMATEPERONE AND SALTS THEREOF” (TEVA PHARMACEUTICALS INTERNATIONAL GMBH, priority 2018, published 2024), which cites them from elsewhere.

Counter-ions that a name gives are not always drawn.

For series [1] the following is noted: hydrochloride salt disclosed in U.S. Pat. No. 7,183,282.
For series [2] the following is noted: hydrochloride salt disclosed in U.S. Pat. No. 7,183,282. The source holds these as a separate data set.
The conditions of series [3]: free base form, oily, sticky solid.

As for `CN1CCN2c3c(cccc31)[C@@H]1CN(CCCC(=O)c3ccc(F)cc3)CC[C@@H]12` [hydrochloride salt of lumateperone], in series [1], the hygroscopicity result is given as “hygroscopic”. Further, the stability result in series [2] is “poor”.

As for `CN1CCN2c3c(cccc31)[C@@H]1CN(CCCC(=O)c3ccc(F)cc3)CC[C@@H]12` [lumateperone, 1-(4-fluorophenyl)-4-((6bR, 10aS)-3-methyl-2,3,6b,9,10,10a-hexahydro-1H-pyrido[3′,4′:4,5]pyrrolo[1,2,3-de]quinoxalin-8(7H)-yl)butan-1-one], the solubility entry in series [3] is “poor”.
